Data reported in patent publication US20200254065A1, “LONG-ACTING GLP-2 ANALOGS” (OPKO Biologics Ltd., priority 2019, published 2020).
Values belong to the molecule of their own block, whether it stands above or below them. Square brackets hold non-standard residues; d marks the D form. Peptide text beside a SMILES is read from it. Nle = CCCC[C@H](N)C(=O)O

Key:
[1] = Pharmacokinetics of conjugated teduglutide in rats (commercial GLP2 ELISA kit); format: in vivo; conditions: SD rats
Protocol: Plasma samples were collected at pre-dose, 0.5, 2, 4, 8, 12, 24, 48, 72, 96, 168, 216, and 240 hours post dose. The levels of conjugates and free teduglutide were measured using commercial GLP2 ELISA kit.

small intestine = test: Intestine weight model in rats; format: in vivo, SD rats
Outline: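 Rat intestinal growth model: conjugates given s.c. at 0.5–8.0 mg/kg peptide dose, as one injection, on days 1 and 3, or every 6 days; small intestine weighed on day 3, 6, 7, 10, 12 or 14. Histology (H&E, duodenum/jejunum/ileum) gave crypt+villus length. Both reported as % increase over vehicle.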

[2] = Apraglutide, as previously reported, cited from earlier work
[3] = Stability of GLP-2 analogues on incubation at 37° C. (appearance, O.D. reading, RP-HPLC); format: physicochemical; conditions: following 48 h incubation at 37° C.
Protocol: The GLP-2 analogues were tested for stability via appearance, O.D. reading (A.280, and A.325) and RP-HPLC (purity, and peak area) following t=0, 1 day, and 48 h incubation at 37° C.

[4] = PK after single SC injection in rats (LC-MS/MS); conditions: rat, in vivo, 2 mg/kg
Protocol: To support the pharmacodynamic effects of V4 and Cys-FMS-V4 as detailed in Example 9, a pharmacokinetic analysis was also conducted. In this study (Study reference 15204), all animals were injected SC on Day 1 with 2 mg/kg peptide content of V4, Cys-FMS-V4 and Apraglutide. Blood samples were collected at 2, 8, 12, 24, 36, 48, 72, 96, 120 hours, and Days 7, 8, 9, 10, 11, 12, 13 and 14 post-dose administration and subsequently taken to LC-MS/MS analysis to determine plasma levels of each compound. For Cys-FMS-V4, a 2-analyte method was applied to determine the plasma concentrations of both the full conjugate and the V4 that was hydrolyzed from it (V4 hydrolyzed). Plasma concentrations (μM), as measured by using the LC-MS/MS method, of V4 peptide, Cys-FMS-V4, hydrolyzed V4, and Apraglutide are presented in FIG. 17.

[5] = 2-compartmental pharmacokinetic modelling (MONOLIX 2018R2); format: in vivo, rat; conditions: rat, in vivo
Protocol: An in-depth PK modeling was performed to address the unexpected differences in half life, distribution, and pharmacological effect between V4, Cys-FMS-V4, and Apraglutide in the rat model. The analysis was performed with MONOLIX 2018R2 suite using a 2-compartmental pharmacokinetic model. The data used in this analysis was comprised from 3 independent experiments (data is presented as their average). The concentration versus time data of V4 that was formed from the Cys-FMS-V4 conjugate (the hydrolyzed peptide) was described appropriately using the values of the pharmacokinetic parameters of V4 peptide. Thus, the disposition of the hydrolyzed V4 was identical to that of the V4 peptide following the IV and SC administration.
The pharmacokinetics of Apraglutide in our studies was determined after SC administration. […] Based on this assumption, the values of volumes of distribution and clearance (Vpept, Vss, Vbeta, and CL) were calculated for Apraglutide (Table 13). The values of the other parameters of Apraglutide in Table 14 (the rate constants and the half-lives) are not dependent on this assumption.

GLP-2 receptor [6] = target: T1, GLP-2 receptor (Homo sapiens, UniProt O95838); test: GLP-2 receptor Cell Based Assay (CBA); conditions: EC50 (nM) Average, average of 3 independent CBA; different GLP-2R Assay Kit lot (Table 8)
T1 sequence (O95838 1-553): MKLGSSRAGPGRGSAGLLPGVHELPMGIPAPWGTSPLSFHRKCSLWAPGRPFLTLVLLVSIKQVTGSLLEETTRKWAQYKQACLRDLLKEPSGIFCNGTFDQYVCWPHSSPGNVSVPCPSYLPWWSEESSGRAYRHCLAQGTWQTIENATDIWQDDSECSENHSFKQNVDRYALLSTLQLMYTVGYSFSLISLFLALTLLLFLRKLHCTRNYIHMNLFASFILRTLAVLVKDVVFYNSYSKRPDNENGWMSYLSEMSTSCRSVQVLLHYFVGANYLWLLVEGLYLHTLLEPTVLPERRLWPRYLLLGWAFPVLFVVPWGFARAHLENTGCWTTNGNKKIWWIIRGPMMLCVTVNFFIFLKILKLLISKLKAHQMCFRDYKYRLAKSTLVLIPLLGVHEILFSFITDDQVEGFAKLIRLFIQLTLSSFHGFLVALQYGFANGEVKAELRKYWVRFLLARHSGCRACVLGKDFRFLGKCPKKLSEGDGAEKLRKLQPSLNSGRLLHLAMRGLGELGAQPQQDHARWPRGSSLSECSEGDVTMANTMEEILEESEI
Protocol: Evaluation of in vitro binding affinity of the different peptides was assessed by using Cell Based Assay (CBA) in the presence of escalating doses of the different peptides.

[7] = circulating native GLP-2; in humans; cited from earlier work
GLP-2 receptor [8] = target: T2, GLP-2 receptor (UniProt O95838 1-553, limits assumed); test: cell-based or functional assay
T2 sequence (looked up): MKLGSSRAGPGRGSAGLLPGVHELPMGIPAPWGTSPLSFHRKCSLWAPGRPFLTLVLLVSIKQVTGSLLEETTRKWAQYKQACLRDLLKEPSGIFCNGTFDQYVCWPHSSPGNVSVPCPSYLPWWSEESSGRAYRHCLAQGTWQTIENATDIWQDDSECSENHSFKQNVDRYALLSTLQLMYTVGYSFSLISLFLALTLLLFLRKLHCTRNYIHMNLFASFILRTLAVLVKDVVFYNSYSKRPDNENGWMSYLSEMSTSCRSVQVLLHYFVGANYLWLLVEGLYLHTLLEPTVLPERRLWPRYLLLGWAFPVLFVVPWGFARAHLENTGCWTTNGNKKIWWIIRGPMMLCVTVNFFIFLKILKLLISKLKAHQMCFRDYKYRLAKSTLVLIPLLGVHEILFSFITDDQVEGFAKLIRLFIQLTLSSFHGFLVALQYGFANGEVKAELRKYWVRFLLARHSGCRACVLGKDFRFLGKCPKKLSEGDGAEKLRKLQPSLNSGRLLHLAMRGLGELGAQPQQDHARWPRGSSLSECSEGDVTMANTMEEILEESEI

GLP-2 receptor [9] = target: T2, GLP-2 receptor; test: cell-based or functional assay; remark: listed apart in the source

Time up to which detectable in plasma ([1]; single injection): up to 4 hours
half-life ([1]; rat, plasma, injected once at 2 mg/kg peptide dose, read-out: Half-Life (t1/2, hr) (converted)): 0.9 h
Molecule: CC[C@H](C)[C@H](NC(=O)[C@H](Cc1ccccc1)NC(=O)[C@H](CC(=O)O)NC(=O)[C@H](CCCNC(=N)N)NC(=O)[C@H](C)NC(=O)[C@H](C)NC(=O)[C@H](CC(C)C)NC(=O)[C@H](CC(N)=O)NC(=O)[C@H](CC(=O)O)NC(=O)[C@H](CC(C)C)NC(=O)[C@@H](NC(=O)[C@@H](NC(=O)[C@H](CC(N)=O)NC(=O)[C@H](CCSC)NC(=O)[C@H](CCC(=O)O)NC(=O)[C@H](CC(=O)O)NC(=O)[C@H](CO)NC(=O)[C@H](Cc1ccccc1)NC(=O)[C@H](CO)NC(=O)CNC(=O)[C@H](CC(=O)O)NC(=O)CNC(=O)[C@@H](N)Cc1c[nH]cn1)[C@@H](C)O)[C@@H](C)CC)C(=O)N[C@@H](CC(N)=O)C(=O)N[C@@H](Cc1c[nH]c2ccccc12)C(=O)N[C@@H](CC(C)C)C(=O)N[C@H](C(=O)N[C@@H](CCC(N)=O)C(=O)N[C@H](C(=O)N[C@@H](CCCCN)C(=O)N[C@H](C(=O)N[C@H](C(=O)N[C@@H](CC(=O)O)C(=O)O)[C@@H](C)O)[C@@H](C)CC)[C@@H](C)O)[C@@H](C)CC [GLP-2-Gly2, reference compound]
Increase of intestine weight over vehicle (%) (small intestine; 2.5 mg/kg daily injections for five days (5 injections), average of five studies): 25%
Average Intestine weight (gr) (small intestine; SD rats, SC on days 1 and 3 at 1 mg/kg peptide dose (2 injections), intestine weight on day 6): 5.7 gr
Increase of intestine weight over vehicle (%) (small intestine; SD rats, SC on days 1 and 3 at 1 mg/kg peptide dose (2 injections), intestine weight on day 6, listed as GLP-2-Gly2 (Teduglutide), 1 mg/kg): 5%
Increase of intestine weight over vehicle (%) (small intestine; SD rats, SC on days 1 and 3 at 1 mg/kg peptide dose (2 injections), intestine weight on day 6, listed as teduglutide, 1 mg/kg): did not increase intestine weight compared to vehicle

Solubility via appearance [3]: V1: opaque
Stability via RP-HPLC main peak ([3]; change of main peak): V1: −20%
AUC(0-inf) [4]: 29.4 µM·h
AUC(0-t) [4]: 29.2 µM·h
CL/F [4]: 0.3 mL/min/kg
Cmax [4]: 1950 nM
Time post injection up to which detectable in blood [4]: ≤ 120 h
Tmax [4]: 8 h
Vd/F [4]: 0.38 L/kg
half-life [4]: 14.5 h
k12 [5]: 0.0065 h⁻¹
k21 [5]: 0.0068 h⁻¹
ka—pept [5]: 0.1661 h⁻¹
kpepte [5]: 0.0855 h⁻¹
CL ([5]; sc): 0.222 mL/min/kg
Vd ([5]; sc): 2.12 L/kg
Vpept ([5]; sc): 0.156 L/kg
Vss ([5]; sc): 0.303 L/kg
half-life ([5]; sc, t1/2 absorption): 4.17 h
half-life ([5]; t1/2 alpha): 7.5 h
half-life ([5]; t1/2 beta): 110 h
EC50 (GLP-2 receptor [6]): 1.7 nM
Molecule: CCCC[C@H](NC(=O)[C@H](CCC(=O)O)NC(=O)[C@H](CC(=O)O)NC(=O)[C@H](CO)NC(=O)[C@H](Cc1ccccc1)NC(=O)[C@H](CO)NC(=O)CNC(=O)[C@H](CC(=O)O)NC(=O)CNC(=O)[C@@H](N)Cc1cnc[nH]1)C(=O)N[C@H](Cc1ccccc1)C(=O)N[C@H](C(=O)N[C@H](C(=O)N[C@@H](CC(C)C)C(=O)N[C@@H](CC(=O)O)C(=O)N[C@@H](CC(C)C)C(=O)N[C@@H](CC(C)C)C(=O)N[C@@H](C)C(=O)N[C@@H](C)C(=O)N[C@@H](CCCNC(=N)N)C(=O)N[C@@H](CC(=O)O)C(=O)N[C@@H](Cc1ccccc1)C(=O)N[C@H](C(=O)N[C@@H](CC(N)=O)C(=O)N[C@@H](Cc1c[nH]c2ccccc12)C(=O)N[C@@H](CC(C)C)C(=O)N[C@H](C(=O)N[C@@H](CCC(N)=O)C(=O)N[C@H](C(=O)N[C@@H](CCCCN)C(=O)N[C@H](C(=O)N[C@H](C(=O)N[C@@H](CC(=O)O)C(N)=O)[C@@H](C)O)[C@@H](C)CC)[C@@H](C)O)[C@@H](C)CC)[C@@H](C)CC)[C@@H](C)CC)[C@@H](C)O [Variant 1, reference compound] (H-HGDGSFSDE[Nle][dF]TILDLLAARDFINWLIQTKITD-NH2)
Fpept ([2]; assumed absolute SC bioavailability in rats): 0.74
Absolute bioavailability following SC administration in rats ([2]; assumed): 74%

Continued, molecule first:

Molecule: NH2-HADGSFSDEMNTILDNLAARDFINWLIQTKITD-COOH [native GLP-2]
Biological (in vivo) half-life [7]: approximately 7 minutes

B1: GLP-2 Variant #4 (peptide)
peptide: H-HGEGSFSDE[Nle]NTILDLLAARDFINWLIQTKITD-NH2
SMILES: CCCC[C@H](NC(=O)[C@H](CCC(=O)O)NC(=O)[C@H](CC(=O)O)NC(=O)[C@H](CO)NC(=O)[C@H](Cc1ccccc1)NC(=O)[C@H](CO)NC(=O)CNC(=O)[C@H](CCC(=O)O)NC(=O)CNC(=O)[C@@H](N)Cc1c[nH]cn1)C(=O)N[C@@H](CC(N)=O)C(=O)N[C@H](C(=O)N[C@H](C(=O)N[C@@H](CC(C)C)C(=O)N[C@@H](CC(=O)O)C(=O)N[C@@H](CC(C)C)C(=O)N[C@@H](CC(C)C)C(=O)N[C@@H](C)C(=O)N[C@@H](C)C(=O)N[C@@H](CCCNC(=N)N)C(=O)N[C@@H](CC(=O)O)C(=O)N[C@@H](Cc1ccccc1)C(=O)N[C@H](C(=O)N[C@@H](CC(N)=O)C(=O)N[C@@H](Cc1c[nH]c2ccccc12)C(=O)N[C@@H](CC(C)C)C(=O)N[C@H](C(=O)N[C@@H](CCC(N)=O)C(=O)N[C@H](C(=O)N[C@@H](CCCCN)C(=O)N[C@H](C(=O)N[C@H](C(=O)N[C@@H](CC(=O)O)C(N)=O)[C@@H](C)O)[C@@H](C)CC)[C@@H](C)O)[C@@H](C)CC)[C@@H](C)CC)[C@@H](C)CC)[C@@H](C)O
EC50 (nM) Average, GLP2-receptor CBA, 3 independent assays (GLP-2 receptor [8]): 1 nM
EC50 Ratio to Teduglutide, GLP2-receptor CBA (GLP-2 receptor [8]): 1.8 fold
EC50 Ratio to Teduglutide, CBA (GLP-2 receptor [9]): 3.8 fold
EC50 [nM], Cell Based Assay (CBA), cells overexpressing the GLP-2 receptor (GLP-2 receptor [9]): 21.6 nM
